Here are results for 14 molecules from ChEMBL document CHEMBL1138992, “New benzimidazoles as thrombopoietin receptor agonists” (Bioorg Med Chem Lett, 2006).

The first assay has as its target T1, Thrombopoietin receptor (Homo sapiens) (UniProt P40238).
T1 sequence (whole entry): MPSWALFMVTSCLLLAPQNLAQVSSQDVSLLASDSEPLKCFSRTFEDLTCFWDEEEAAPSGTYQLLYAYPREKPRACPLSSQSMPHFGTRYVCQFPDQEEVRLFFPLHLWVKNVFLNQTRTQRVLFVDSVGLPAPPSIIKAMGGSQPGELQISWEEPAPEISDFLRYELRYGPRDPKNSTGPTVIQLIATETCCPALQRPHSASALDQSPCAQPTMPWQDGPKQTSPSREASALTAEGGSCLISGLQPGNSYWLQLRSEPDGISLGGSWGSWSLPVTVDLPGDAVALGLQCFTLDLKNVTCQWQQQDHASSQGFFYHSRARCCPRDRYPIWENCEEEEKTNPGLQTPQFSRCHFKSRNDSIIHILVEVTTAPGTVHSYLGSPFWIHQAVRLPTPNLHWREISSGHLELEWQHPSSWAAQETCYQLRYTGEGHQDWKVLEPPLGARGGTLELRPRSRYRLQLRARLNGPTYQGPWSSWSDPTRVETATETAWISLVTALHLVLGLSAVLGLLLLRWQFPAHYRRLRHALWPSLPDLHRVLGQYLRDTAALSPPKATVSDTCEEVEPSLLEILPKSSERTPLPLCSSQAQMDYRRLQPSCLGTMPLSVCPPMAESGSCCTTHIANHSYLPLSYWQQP
Briefly: (§1) Agonist activity as induced proliferation in Ba/F3-hTpoR murine lymphocyte expressing human TPOR. It counts as functional.
In turn, `CC(C)(C)c1ccc(-c2cccc(-c3nc4cc(/C=C5\SC(=S)NC5=O)ccc4[nH]3)c2)cc1` showed an Efficacy of 137%. Still for that read-out and setting: as for `Cc1ccc(-c2ccc(-c3nc4cc(/C=C5\SC(=S)NC5=O)ccc4[nH]3)s2)cc1C`, the figure is 117%. `CC(C)(C)c1ccc(-c2cccc(-c3nc4cc(/C=C5\SC(=S)NC5=O)ccc4[nH]3)c2O)cc1` came in with an Efficacy of 134%. `CC(C)(C)c1ccc(-c2cccc(-c3nc4cc(CC(C(=O)O)C(=O)O)ccc4[nH]3)n2)cc1` registered an Efficacy of 13%. Still for that read-out and setting: as for `Cc1ccc(-c2csc(-c3nc4cc(/C=C5\SC(=S)NC5=O)ccc4[nH]3)c2)cc1C`, the figure is 123%; as for `CC(C)(C)c1ccc(-c2ccc(-c3nc4cc(/C=C5\SC(=S)NC5=O)ccc4[nH]3)o2)cc1`, 142%; as for `C/C(=C\c1ccc2[nH]c(-c3cccc(-c4ccc(C(C)(C)C)cc4)n3)nc2c1)C(=O)O`, 109%. For `O=C1NC(=S)S/C1=C\c1ccc2[nH]c(-c3cccc(-c4ccc(Cl)c(Cl)c4)n3)nc2c1`, the Efficacy worked out at 19%.

Molecule `CC(C)(C)c1ccc(-c2cccc(-c3nc4cc(/C=C5\SC(=S)NC5=O)ccc4[nH]3)n2)cc1` showed an Efficacy of 90%.

`Cc1ccc(-c2cccc(-c3nc4cc(/C=C5\SC(=S)NC5=O)ccc4[nH]3)n2)cc1C`: the Efficacy came to 73%.

A further assay has as its target T2, Thrombopoietin receptor (Homo sapiens, UniProt P40238).
T2 sequence (P40238 whole entry): T1 sequence (whole entry)
The description is as §1. It counts as functional.
On to `Cc1ccc(-c2cccc(-c3nc4c(/C=C5\SC(=S)NC5=O)cccc4[nH]3)n2)cc1C`, for which the EC50 result is given as “Not Active”. Regarding `C/C(=C\c1cccc2[nH]c(-c3cccc(-c4ccc(C)c(C)c4)n3)nc12)C(=O)O`, the EC50 entry was “Not Active”. `Cc1ccc(-c2cccc(-c3nc4c(C=C(C(=O)O)C(=O)O)cccc4[nH]3)n2)cc1C`: the EC50 entry is given as “Not Active”. Still for that read-out and setting: next, `CCOC(=O)/C(C)=C/c1ccc2[nH]c(-c3cccc(-c4ccc(C(C)(C)C)cc4)n3)nc2c1`: “Not Active”.
